# Experimental data reported in US20160101125A1, “COMPOSITIONS FOR USE IN CARTILAGE BREAKDOWN” (NESTEC S.A., priority 2013, published 2016).
# Legend:
# Format in all cases: cell-based, Bos Taurus
# Conditions in all cases: 1.5 μM, 3 days
# ADAMTS-5 mRNA = ADAMTS-5 mRNA expression in bovine primary chondrocytes in alginate beads (real-time PCR, relative to GAPDH)
# COX-2 mRNA = COX-2 mRNA expression in bovine primary chondrocytes in alginate beads (real-time PCR, relative to GAPDH)
# Experimental: The foot of a young cow was washed to remove soil. The skin was removed from the foot. The articulation was opened transversally. Intra articular ligaments were transected. The opened articulation was washed with phosphate buffered saline. With a scalpel blade, full thickness slices of cartilage were dissected out and collected in DMEM high glucose with 10 mM hepes and 1% Penicillin-Streptomycin. Slices of cartilage were washed in DMEM high glucose with 10 mM hepes and 1% Penicillin-Streptomycin.
# Cartilage was then digested successively by 0.5 mg/ml of hyluronidase during 30 minutes, 1.0 mg/ml of pronase E during 60 minutes and 1.0 mg/ml of collagenase overnight under slow agitation. […]
# Total RNA was isolated from pool of 40 beads and isolated using RNeasy kit from Qiagen. cDNA was obtained by reverse transcription of RNA with the Primescript 1st strand cDNA Synthesis kit from Takara. mRNA expression of ADAMTS-5, COX-2, MMP-13 and GAPDH were quantified in real-time PCR (SYBR Green)
# FIGS. 1 to 3 show mRNA expression of ADAMTS-5, COX-2 and MMP-13 normalized by GAPDH mRNA expression after 3 days of culture. Data were expressed as fold change in gene expression compared to negative control (cells cultured in complete medium). Results were calculated according to the 2^−ΔΔCT method.
# IL1a interleukin-1 alpha 10 ng/ml Data were expressed as median±S.E. Median (2 experiments of 3 replicates each). […]
# MMP-13 mRNA = MMP-13 mRNA expression in bovine primary chondrocytes in alginate beads (real-time PCR, relative to GAPDH)
# [1] = absence of IL1a (normal conditions)
# [2] = presence of IL1a 10 ng/ml (disease conditions)
smiles,measurement,setting,value
"O=c1c(O)c(-c2ccc(O)c(O)c2)oc2cc(O)cc(O)c12 [QRC, quercetin]",ADAMTS-5 mRNA expression relative to GAPDH,ADAMTS-5 mRNA; [1],decrease
same,ADAMTS-5 mRNA expression relative to GAPDH,ADAMTS-5 mRNA; [2],decrease
same,COX-2 mRNA expression relative to GAPDH,COX-2 mRNA; [1],reduce
same,COX-2 mRNA expression relative to GAPDH,COX-2 mRNA; [2],decrease
same,MMP-13 mRNA expression relative to GAPDH,MMP-13 mRNA; [1],decrease
same,MMP-13 mRNA expression relative to GAPDH,MMP-13 mRNA; [2],decrease
